Results reported in ChEMBL document CHEMBL1135764, “Synthesis and evaluation of Glypsi(PO(2)R-N)Pro-containing pseudopeptides as novel inhibitors of the human cyclophilin hCyp-18” (J Med Chem, 2002).
Active and inactive are the calls of the source. The calls are words filed in the database; no cut-off is given here.

Assays:
[1] = tested on: cyclophilin A hCyp-18 (Homo sapiens); experiment: Inhibitory activity against Human Cyclophilin hCyp-18 Peptidyl-prolyl isomerase by using the standard uncoupled PPIase (peptidyl-prolyl isomerases) assay at a concentration of 500 uM
[2] = tested on: cyclophilin A hCyp-18 (Homo sapiens); experiment: Inhibitory activity against Human Cyclophilin hCyp-18 Peptidyl-prolyl isomerase by using the standard uncoupled PPIase (peptidyl-prolyl isomerases) assay at a concentration of 500 uM;NI-no inhibition
[3] = tested on: cyclophilin A hCyp-18 (Homo sapiens); experiment: Inhibitory activity against Human Cyclophilin hCyp-18 Peptidyl-prolyl isomerase by using the standard trypsin-coupled PPIase (peptidyl-prolyl isomerases) assay at a concentration of 100 uM

## CCOP(=O)(CNC(=O)[C@H](C)NC(C)=O)N1CCCC1C(=O)N[C@H](CNc1ccc([N+](=O)[O-])cc1)Cc1ccccc1 (stereo partly drawn)
[1]
  Inhibition: 30%
[2]
  NI: inactive

## COC(=O)Cc1ccc(NC(=O)[C@H](Cc2ccccc2)NC(=O)C2CCCN2P(=O)(O)CNC(=O)[C@H](C)NC(C)=O)cc1 (stereo partly drawn)
[3]
  Inhibition: 0%
